row,Structure (SMILES),melting point [°C]
1,C#CCN1CCCc2ccc(OC(=O)Nc3ccc(Cl)cc3)cc21,160
2,O=C1CC(O)c2c1cc[nH]c2=O (stereo not given),200
3,Cc1ccc(-c2ncc(O)nc2-c2ccc(C)cc2)cc1,250 to 254
4,COC1CCC2(C)C(=CC(=O)C3C4CCC(=O)C4(C)CCC32)C1 (stereo not given),227 to 229
5,Cc1cc(Cl)ccc1N=C1NCCN1,137 to 138
6,Cc1ccc(CCN2CCC[C@H](C(C#N)(c3ccccc3)c3ccccc3)C2)cc1,110 to 113
7,O=C(O)CCCOc1ccc(N2CCN(c3ccncc3)CC2)cc1[N+](=O)[O-],219 to 220
8,O=C(O)CCNC(=O)C(=Cc1cc(F)cc(F)c1)CS,125
9,Cc1cc(CCCCCOc2ccc(C#N)cc2)no1,61 to 62
10,Clc1ccc(C2(Cn3cncn3)OC2c2ccc(Cl)cc2Cl)cc1 (stereo not given),119
11,CC(C)(C)NC(=O)NC1(C#N)CCC1,212 to 214
12,CNC(=O)C1CCCN1S(=O)(=O)c1ccc(N2CCC(NC[C@H](O)COc3cccc4[nH]c(=O)[nH]c34)CC2)cc1 (stereo not given in full),36 to 39
13,O=C1CCC(c2cccc(F)c2)(c2cccc(F)c2)[C@@H]2CN(C(=O)Cc3ccccc3)C[C@H]12 (racemic),108
14,COc1cc(Oc2ccc(S(C)(=O)=O)nc2)cc2cc(C3=NCC(CC(=O)NC4CC4)S3)[nH]c12 (stereo not given),248 to 249
15,O=C(NC(=S)Nc1ccccc1-c1ccccc1F)c1ccccc1,110 to 111
16,CC(=O)Nc1ccc(C(=O)Nc2ccc(O)cc2)cc1,275 to 277
17,COc1cc(Cl)c(N)cc1C(=O)NCC1CCCO1 (stereo not given),109 to 110
18,NC1(C(=O)NOCc2ccccc2)CCCC1,94 to 96
19,CCOC(=O)C(=NO)c1csc(NC(c2ccccc2)(c2ccccc2)c2ccccc2)n1,260
20,CC(=O)SC(C(=O)c1cccc(F)c1)C(C)C(=O)N1CCC[C@H]1C(=O)O (stereo not given in full),158 to 159

row,Structure (SMILES),melting point [°C]
1,OCCON=Cc1ccc2ccccc2n1,128
2,CN(C(=O)OC(C)(C)C)C1CC=C(c2c[nH]c3ccc([N+](=O)[O-])cc23)CC1 (stereo not given),224 to 226
3,Nc1ncc(-c2cccc(OCc3ccccc3)c2)cc1C(=O)NC1CC1,177 to 178
4,C=C(C)[C@@H]1CC=C(OC(=O)C2CCC(C(=O)OC3=CC[C@@H](C(=C)C)CC3)CC2)CC1 (stereo not given in full),89
5,COc1cc2c(cc1OC)CC1(CC2)NC(=O)CC(C)C1=O (stereo not given),168 to 169
6,Cc1ccc(S(=O)(=O)n2c(Br)cc(-c3ccc(F)cc3)c2-c2ccc(S(C)(=O)=O)cc2)cc1,207 to 208
7,Cc1ccc(S(=O)(=O)Oc2n[nH]c(CO)c2C(C)(C)C)cc1,62 to 65
8,CC(=O)N(c1ccc(F)cc1Cl)S(=O)(=O)CCl,89 to 92
9,c1ccc(Oc2ccc(OCc3nc(C4CC4)no3)cc2)cc1,99
10,COC[C@@H](N)C(=O)N(O)C(=O)OC(C)(C)C,83 to 85
11,CC(C)N(CCC1(c2ccccn2)CCC(=O)NC1=O)C(C)C (stereo not given),101 to 102
12,O=[N+]([O-])c1ccc(Oc2cncc(Cl)c2)cc1,80 to 82
13,OC1(c2nccnc2Cl)CN2CCC1CC2 (stereo not given),215 to 216
14,NS(=O)(=O)c1cc(CCNC(=O)C=Cc2cccs2)ccc1OCC1CCCO1 (stereo not given),180 to 185
15,CC(C)(C)c1cc(OCc2ccc(-c3nnn[nH]3)cc2)cc(C(C)(C)C)c1O,235 to 237
16,Nc1ccc(C#Cc2ccccc2)c(-c2cc(N)ccc2C#Cc2ccccc2)c1,159 to 161
17,CC(C)c1cccc(C(C)C)c1NC(=O)CNC(c1cccc(C(F)(F)F)c1)c1cccc(C(F)(F)F)c1,144 to 145
18,O=C1CCOc2c1ccc1c2OC(CN2CC=C(c3c[nH]c4ccccc34)CC2)CO1 (stereo not given),210
19,C=CCN(CC=C)c1nc(NC(=O)c2ccco2)n2oc(=O)nc2n1,159 to 162
20,COC(=O)c1cc(F)ccc1Nc1ccnc2cc(C(F)(F)F)ccc12,174

row,Structure (SMILES),melting point [°C]
1,Cc1cccc(-c2ccc(Cl)nn2)c1,112 to 113
2,Cc1cc2c(cc1F)N(C(N)=O)C(=O)C2,200 to 203
3,CNC(=O)c1cc2c(Oc3ccc(-n4cccn4)cc3)cncc2s1,192 to 194
4,O=P1(c2cccc(F)c2)c2ccccc2CN1c1ccccc1 (stereo not given),209 to 210
5,O=S(CCc1ccccc1)CCc1ccccc1,70 to 71
6,COc1ccc(-c2coc3ccc(C(=O)NN)cc23)cc1,184 to 185
7,CN1Cc2c(C(=O)OC(C)(C)C)ncn2-c2cccc(I)c2C1=O,203 to 204
8,Nc1ccc2ncnc(Nc3ccc(Oc4ccccc4)cc3)c2c1,89 to 90
9,N#CC(C=O)c1ccccc1 (stereo not given),161 to 163
10,CC(C)(C)C(=O)CCSC(=S)Nc1ccc(Cl)cn1,111
11,CC(C#N)c1ccc(O)c(N)c1 (stereo not given),110 to 112
12,CC(C)CNC(=O)[C@H](C)C[C@H](O)[C@H](CC1CCCCC1)NC(=O)[C@H](Cc1cscn1)NC(=O)[C@@H](CC(=O)N(C)Cc1ccccc1)Cc1ccccc1,118 to 120
13,NCCOc1cccc2c1ccn2S(=O)(=O)c1ccccc1,71 to 73
14,O=C1Nc2cccc(F)c2C(=O)N2CC=C[C@@H]12,238 to 240
15,O=C(Nc1ccc(CC2CCN(S(=O)(=O)N3CCCCC3)CC2)cc1)C(F)(F)F,156 to 157
16,Cc1nc(C#N)ccc1OC1SCC(O)C(O)C1O (stereo not given),193 to 195
17,Cc1ccccc1-n1c(Cn2cnc3c(N)ncnc32)nc2cccc(C)c2c1=O,282 to 283
18,FC(F)(F)c1nn(-c2c(Cl)cc(Cl)cc2Cl)cc1Br,93 to 94

# Next, values leading:
row,melting point [°C],Structure (SMILES)
1,215,COC(=O)c1c(C(=O)O)nc2cc(Cl)ccc2c1O
2,133 to 134,CCOC(=O)CCN1CCN(C2=Nc3ccccc3Cc3ccccc32)CC1
3,137 to 138,CC(C)(C)OC(=O)NC(Cc1c[nH]c2ccccc12)C(=O)C=Cc1cc(C(F)(F)F)cc(C(F)(F)F)c1 (stereo not given)
4,140 to 142,COC1CN(Cc2ccc(Nc3cc(-c4cccc(-n5ncc6cc(C(C)(C)C)cc(F)c6c5=O)c4CO)nn(C)c3=O)nc2)C1
5,167 to 168,CCOC(=O)C(=NO)c1ccccc1[N+](=O)[O-]
6,216 to 220,COC(=O)C1=C(C)Nc2c(c(C)nn2C)C1c1ccccc1[N+](=O)[O-] (stereo not given)
7,55,CCCCCCCNC(=O)N(C)c1cccc(-c2ccc(CC3SC(=O)NC3=O)cc2)c1 (stereo not given)
8,288 to 289,CC(Cl)C(=O)Nc1cccc2c1C(=O)c1cccc(NC(=O)C(C)Cl)c1C2=O (stereo not given)
9,74 to 75,CS(=O)(=O)OCCCc1ccc(OCc2ccccc2)cc1
10,275 to 278,Cc1nc(-n2ccc(O)cc2=O)sc1C(=O)NCc1ccncc1
11,227,COc1cc(F)ccc1C(=O)NCCN1CCC(n2c(=O)[nH]c3cc(Cl)ccc32)CC1
12,150,O=C(NOC(=O)c1ccccc1)OCC1c2ccccc2-c2ccccc21
13,> 270,COc1cc2c(c(F)c1CNC1CCCNC1c1ccccc1)N(C)C(=O)CC2(C)C (stereo not given)
14,96 to 97,Cc1c(C)c2c(c(C)c1N)CC(C)(CSc1ccncc1)O2 (stereo not given)
15,74.3,CCN(CC)C(=O)C=Cc1cccc([N+](=O)[O-])c1C
16,209 to 211,Cn1c(=O)n(-c2cc(Cl)cc(Cl)c2)c(=O)n1C
17,234 to 236,CN1C(=O)C2(COc3cc4c(cc32)OCCO4)c2c(NC(=O)C3CCC3)cccc21 (stereo not given)
18,> 200,O=C(O)C1CC(=C2CCN(c3ccccc3)C2=O)c2ccc(Cl)cc2N1 (stereo not given)
19,165 to 166,NS(=O)(=O)c1ccc(NC(=O)[C@@H]2CCCN2C(=O)OCc2ccccc2)cc1
20,101 to 102,CC1=C(C)C(=O)C(NCc2ccccc2)=CC1=O
21,101 to 103,CCc1cccc2c1S(=O)(=O)c1ccccc1O2

row,melting point [°C],Structure (SMILES)
1,135 to 138,COC(=O)c1cnc(N2CCN(Cc3ccccc3)CC2)nc1OC
2,177 to 178,Cc1cc(NC(=O)C(CS)Cc2ccccc2)cc(C(=O)O)c1 (stereo not given)
3,238 to 241,CCCCc1nc2ccc(C(=O)O)cc2n1Cc1ccccc1Cl
4,182 to 184,CNC(=O)OCc1c(COC(=O)NC)c(-c2ccc(OC)cc2)n2c1Cc1ccccc1C2
5,95 to 97,CN(CCOc1ccc(CCO)cc1)c1nc2ccccc2o1
6,103 to 106,CCOC(=O)C(=O)c1ccc(OCC(=O)N2CCOCC2)cc1
7,130 to 132,CCCc1c(OCCCSc2ccc(C(=O)CCCCC(=O)O)cc2)ccc(C(C)=O)c1O
8,228 to 229,CCOC(=O)c1c(C)cc2c(c1C)c(=O)n(-c1ccccc1Cl)c(=O)n2CC(=O)N(CC)CC
9,126 to 129,CCC1=C(c2cccc(F)c2)C(=O)N(c2ccc(Cl)c(C(F)(F)F)c2)C1
10,112 to 113,O=C1C(=CO)Cc2ccccc21
11,207 to 208,CCCCN1C(=O)CN2C(=O)CN(c3ccc(C(C)C)cc3Br)c3nc(C)nc1c32
12,302 to 304,Cc1nn(-c2ccccc2)c2[nH]c(=O)c3ccccc3c12
13,267,CCCc1c2oc(C(=O)O)cc(=O)c2cc2c(=O)cc(N(C(C)=O)C(C)=O)oc12
14,57 to 58,CCN(C(=O)N(C)C(=O)NC)c1ccccc1
15,187 to 188,O=C(Cn1cccc(OCc2ccccc2)c1=O)ON1C(=O)CCC1=O
16,63 to 66,CCCc1c(OCCCCCC(=O)NC(C)CCCc2cccnc2)ccc(C(C)=O)c1O (stereo not given)
17,123 to 124,CC(C)OCCN1C(=O)N2CCOC2(c2ccccc2)c2cc([N+](=O)[O-])ccc21 (stereo not given)
18,172 to 174,CCCOc1c(OC)cc(C(CCC(C(=O)O)c2cc(OC)c(OC)c(OC)c2)C(=O)O)cc1SC (stereo not given)
19,122 to 124,CCC1(C)OC(c2ccc(S(C)(=O)=O)cc2)=C(c2cc(F)cc(F)c2)C1=O (stereo not given)
20,104 to 108,COc1cccc2c1cc(C)n2Cc1ccc(F)cc1
21,95,CCC(C)CNC(=O)c1ccc2c(c1)N(C(C)CN(C)CC)c1ccccc1S2 (mixture of isomers)

# Source: a melting point compilation (Tetko et al.; mined from patent text by program, amines drawn as free bases though some values may be those of a salt)
